According to ChEMBL document CHEMBL4476877, “Treatment of COPD, gastro-esophageal reflux disease (GERD), food allergies and other gastrointestinal conditions and disorders ameliorated by proper histamine management using a combination of histidine decarboxylase inhibitors, LRA drugs, anti-H1 and/or anti-H2 drugs” (2012):
The source made the active and inactive calls.

Tests used:
Assay type in all cases: functional, organism-based
Homo sapiens [1] = assay: Improvement in disease symptoms in GERD patient assessed as reduction in regurgitation at 150 mg dosed daily
Homo sapiens [2] = assay: Improvement in disease symptoms in GERD patient assessed as reduction in cough at 150 mg dosed daily
Homo sapiens [3] = assay: Improvement in disease symptoms in GERD patient assessed as reduction in heartburns at 150 mg dosed daily
Homo sapiens [4] = assay: Improvement in disease symptoms in GERD patient assessed as improvement in global disease scores at 150 mg dosed daily
Homo sapiens [5] = assay: Improvement in disease symptoms in GERD patient assessed as improvement in global disease scores at 10 mg dosed daily
Homo sapiens [6] = assay: Improvement in disease symptoms in GERD patient assessed as reduction in cough at 10 mg dosed daily
Homo sapiens [7] = assay: Improvement in disease symptoms in GERD patient assessed as reduction in regurgitation at 10 mg dosed daily
Homo sapiens [8] = assay: Improvement in disease symptoms in GERD patient assessed as reduction in heartburns at 10 mg dosed daily

Measured: Activity

CNC(=C[N+](=O)[O-])NCCSCc1ccc(CN(C)C)o1
inactive: Homo sapiens [1] | Homo sapiens [2] | Homo sapiens [3] | Homo sapiens [4]

CCOC(=O)N1CCC(=C2c3ccc(Cl)cc3CCc3cccnc32)CC1
inactive: Homo sapiens [5] | Homo sapiens [6] | Homo sapiens [7] | Homo sapiens [8]
